Results reported in patent publication US11459307B2, “Heterocyclic compounds for the inhibition of PASK” (BioEnergenix LLC, priority 2009, dated 2022).

Columns and labels:
[1] = tested on: high fructose diet fed Sprague Dawley rats; test: Rat High Fructose Model with Fast/Re-Feed; type: in vivo
Procedure: Another standard model of human hyperlipidemia and insulin resistance is the rat fed a high fructose diet for several weeks (33). Additionally, since hepatic lipid synthesis is known to be regulated by food consumption, the fast/reefed cycle of Horton et al. (32) was incorporated into the chronic high fructose diet model. A compound disclosed above was evaluated in this model as an agent to restore insulin sensitivity and lower blood lipids.
Eight week old male Sprague Dawley rats were purchased from Harlan, Inc. The rats weighed 200-225 g upon arrival and were divided into groups as detailed in Table 2 and were immediately placed on a high fructose diet (60% kcal fructose; Open Source Diet #D00111301) ad libitum for three weeks. During the last week of feeding the high fructose diet, the rats were dosed with vehicle (5% solutol, 8% β cyclo-dextrin), subject compound at 30 mg/kg or 100 mg/kg or the control compound at 30 mg/kg by oral gavage once daily for 7 days. On the final day, all animals were placed on a […] followed by a 12 hour re-feed period on the high fructose diet ad libitum. Body weights were monitored throughout the protocol. After completing the fast or fast/re-feed conditions, the rats were given avertin for anesthesia by intraperitoneal administration. Whole blood was collected by cardiac puncture and the rats were terminated by cervical dislocation. Livers were collected surgically, weighed and immediately frozen in liquid nitrogen. The blood was placed in Li-heparin treated tubes, centrifuged to collect plasma and the plasma frozen.
The plasma was analyzed by standard colorimetric assays for glucose, insulin, triglycerides and cholesterol.

[2] = tested on: high fat diet fed C57Bl6 mice; test: Mouse High Fat Dietary Model with fast/re-feed; type: in vivo; conditions: for reduced body weight vs Vehicle: fast/re-feed
Procedure: A standard model of human hyperlipidemia and insulin resistance is the mouse fed a high fat diet for several weeks (31, 33). Additionally, since hepatic lipid synthesis is known to be regulated by food consumption, the fast/re-feed cycle of Horton et al. (32) was incorporated into the chronic high fat diet model. The compound was evaluated in this model as an agent to restore insulin sensitivity and lower blood lipids. The chronic high fat diet was fed to mice to simulate a standard Western diet which is elevated in calories from high fat and carbohydrate intake. This and similar models of dietary induced obesity, insulin insensitivity and elevated serum lipids and cholesterol are used as mouse and rat models of human pathology including hyperlipidemia, type II diabetes, atherosclerosis, obesity, cardiovascular and liver disease. These models have been used as excellent predictors of efficacy in human clinical trials (PPAR and FXR agonists).
The farnesoid X receptor (FXR) is a ligand-activated transcription factor and a member of the nuclear receptor superfamily. […] While the mechanism of action of FXR agonists is clearly distinct from PASK inhibition, WAY-362450 has been used as a positive control compound producing physiologically beneficial changes in glucose and lipid metabolism resembling inhibition of PASK. Throughout these in vivo assays, WAY-362450 has been used as a control compound, and will be referred to as such.
Male C57Bl6 mice were obtained from Jackson Laboratories and had been fed a high fat diet (60% kcal fat) for eight weeks. The mice were fed an identical high fat diet (Research Diet D12492) upon arrival and during the study. All mice were treated with the subject compound at 30 or 100 mg/kg, control compound (WAY-362450) at 30 mg/kg or vehicle by oral gavage daily for three days. On the final day, 10 animals from each group began an 24 hour fast and then were sacrificed (fasted groups 1a,2a,3a,4a). Alternatively, 10 animals from each group underwent a 24 hour fast followed by a 12 hour re-feed period with the same high fat diet ad libitum and then were sacrificed (re-fed groups 1b,2b,3b,4b).
Body weights were monitored at the start and end of the protocol. After completing the fast or fast/re-feed conditions, the mice were given avertin for anesthesia by intraperitoneal administration. Whole blood was collected by cardiac puncture and the mice were terminated by cervical dislocation. Livers were collected surgically, weighed and immediately frozen in liquid nitrogen. The blood was placed in Li-heparin treated tubes, centrifuged to collect plasma and the plasma frozen.
The plasma was analyzed by standard colorimetric assays for glucose, insulin, triglycerides and cholesterol. Frozen liver samples were pulverized and extracted in ethanolic KOH and analyzed for liver triglycerides and cholesterol.

[3] = 30 mg/kg oral once daily for 7 days
[4] = fast and re-feed, 30 mg/kg for 7 days
[5] = 100 mg/kg oral once daily for 7 days
[6] = fast and re-feed, 100 mg/kg for 7 days

## CC(C)OC(=O)C1=CN(C(=O)c2ccc(F)c(F)c2)CC(C)(C)c2c1[nH]c1ccccc21 [control compound, WAY-362450, reference compound]
[1]; [3]
  body weight relative to the Vehicle group (FIG. 1): significant increase in body weight
  increase in liver weight: about 2 g
  increased liver weights: about 15%
[1]; [4]
  effect on plasma glucose concentrations: did not alter plasma glucose concentrations
[2]; 30 mg/kg oral daily for three days
  effects on liver weight: identical to those of the subject compound at the same dose

## CC(C)N(C)c1nc2cc(C(=O)O)ccc2nc1-c1ccc(F)cc1 [subject compound]
[1]; [3]
  body weight relative to the Vehicle group (FIG. 1): modest increase in body weight
[1]; [5]
  body weight relative to the Vehicle group (FIG. 1): modest decrease in body weight
  maximal reduction in liver weight: about 4%
[1]; [4]
  decrease in plasma glucose vs vehicle: 21.5%
  insulin levels reduced vs vehicle: 15.4%
  plasma cholesterol decreased vs vehicle: 5.7%
[1]; [6]
  decrease in plasma glucose vs vehicle: 26.3%
  insulin levels reduced vs vehicle: 31.4%
  plasma cholesterol decreased vs vehicle: 10%
[2]; 30 and 100 mg/kg oral daily for three days
  reductions in liver weights: 7-9%
[2]; fast and re-feed, 100 mg/kg (highest dose)
  decreased plasma glucose vs vehicle: up to 21%
[2]; 30 mg/kg oral gavage daily for three days
  reduced body weight vs Vehicle: 2.7%
[2]; 100 mg/kg oral gavage daily for three days
  reduced body weight vs Vehicle: 5.1%
[2]; fasted and re-fed, 30 mg/kg
  decreased plasma insulin vs vehicle: 10%
[2]; fasted and re-fed, 100 mg/kg
  decreased plasma insulin vs vehicle: 28%
[2]; fasted only, 30 mg/kg
  decreased plasma glucose vs vehicle: 30%
[2]; fasted only, 30 mg/kg oral daily for three days
  decreased body weight vs Vehicle Fasted: 1.8%
[2]; fasted only, 100 mg/kg
  decreased plasma glucose vs vehicle: 43%
[2]; fasted only, 100 mg/kg oral daily for three days
  decreased body weight vs Vehicle Fasted: 5.1%
[2]; fasted only, 30 and 100 mg/kg
  decreased plasma insulin vs vehicle: up to 26%
